Type in all cases: cell-based
Data set [1] relates to algae cells. Nature of the data set: Trehalose treatment, viability at room temperature under low light. The method, then:
Cells in 40 ml flask cultures are grown to mid-log phase with a density of between 3×10^6 and 3×10^7 cells/ml, and are centrifuged. Culture medium is removed after centrifugation, resulting in more concentrated algae cells. Cells are then re-suspended in ideal glass solution consisting of fresh culture medium and trehalose at a concentration of 0.1M, 0.3M, and 0.5M (dihydrate trehalose 100 from Hayashibara Co. Ltd, Okayama, Japan), respectively, and left overnight with mild agitation. Cells are centrifuged again to remove the ideal glass solution the next day, and are re-suspended in fresh or salt water without any nutrient. The cell density of the resulting suspension is determined prior to storage under the various treatments. (Some cells were also treated with a 0.5M sorbitol solution). Cell viability is determined by comparing the cell growth in control set with the experimental set. Specifically, cell counts are performed on all samples. The averaged density value (in cells per ml) for all the cultures after treatment is defined as “rejuvenation cell count.” In some samples, the percent recovery of cells immediately after storage is also determined. The formulae are illustrated as follows: Growth=(rejuvenation cell count)/(initial cell count) Cell recovery after storage=(cell density after storage)/(initial cell density), with controls set at 100% cell recovery. […]

Data set [2] relates to Tetraselmis KAS633. Put plainly: Trehalose preservation, storage as liquid in sponge matrix. The method, then: (§1) Flask cultures (40 ml) of cells are grown to mid-log phase with a density between 3×10^6 and 3×10^7 cells/ml, and are centrifuged. Culture medium is removed after centrifugation, resulting in more concentrated algae cells. Cells are then re-suspended in fresh medium and left overnight. Cells are centrifuged again the next day in order to remove the medium, and are then re-suspended in fresh or salt water without any nutrient. The cell density of the suspension is determined prior to storage under the various treatments. Cells in 40 ml flask cultures are grown to mid-log phase with a density of between 3×10^6 and 3×10^7 cells/ml, and are centrifuged. Culture medium is removed after centrifugation, resulting in more concentrated algae cells. Cells are then re-suspended in ideal glass solution consisting of fresh culture medium and trehalose at a concentration of 0.1M, 0.3M, and 0.5M (dihydrate trehalose 100 from Hayashibara Co. Ltd, Okayama, Japan), respectively, and left overnight with mild agitation. Cells are centrifuged again to remove the ideal glass solution the next day, and are re-suspended in fresh or salt water without any nutrient. The cell density of the resulting suspension is determined prior to storage under the various treatments. (Some cells were also treated with a 0.5M sorbitol solution). In one specific embodiment, non-toxic sponges made of polyurethane matrix ([…]-plugs® from Jaece Industries, Fisher Scientific 14-127-40B), 20 mm in diameter, are cut in half length-wise to fit the wells in the BD Falcon 12-well tissue culture plates and autoclave sterilized. One sponge is placed in each well of the tissue culture plate. 2.0 ml algae cell suspension is pipetted into each well, and the sponge is squeezed with sterile forceps to produce a faster uptake of the cell suspension into the sponge. Plates are subsequently closed and placed under low light and at ambient temperature. After stored under the above preservation conditions for 5 months, algae cells can be rejuvenated by squeezing the sponges with sterile forceps to allow a complete uptake of all cells in the suspension, including those cells not in the sponge such as cells remaining in the well. Cells in the sponges are then removed from the 12-well plates and placed in 10 ml of fresh medium under light. Cell viability is determined by comparing the cell growth in control set with the experimental set. Specifically, cell counts are performed on all samples. The averaged density value (in cells per ml) for all the cultures after treatment is defined as “rejuvenation cell count.” In some samples, the percent recovery of cells immediately after storage is also determined. The formulae are illustrated as follows: Growth=(rejuvenation cell count)/(initial cell count) Cell recovery after storage=(cell density after storage)/(initial cell density), with controls set at 100% cell recovery. Viability after storage and rejuvenation in nutrient medium=(Growth of treatment)/(Growth of control)×100%, with controls set at 100% viability

Data set [3] deals with Chlorella (KAS603). The data set is described as above. How it is done: as §1
Data set [4] concerns Chlorella (KAS503). The description is as above. How it is done: as §1
The test system of data set [5] is algal cells. Nature of the data set: Trehalose preservation, evaporative drying and rehydration. The method, then: In the experimental set, trehalose supplied from two different manufacturers (Sigma Aldrich Co.; Hayashibara Co.) is used at 0.5 M, 1.0 M, and 2.0 M each, in each of three different media (dH2O, 1M NaCl, 2.75 M NaCl algae media). In the control set, dH2O, 1 M NaCl medium, and 2.75 M NaCl medium are prepared, all lacking trehalose. The starting density of cells used for preliminary experiments is 4.59×10^5 cells/mL. The cells are spun down and re-suspended in trehalose solutions, and further equilibrate overnight at 28° C. Cells are then re-suspended in 10 mL of its corresponding medium and transferred to 25 mL canted neck tissue culture flasks (Falcon Co.). The cultures are allowed to settle and proliferate without shaking under low light (11 μE/m2/sec) for nine days. Cells are counted again to determine whether cells would multiply in each respective medium without intervening sub-culture. […] After a week of drying, all the cells are re-hydrated in 5 mL of 1M NaCl growth medium in the morning and viable cells are counted the same afternoon. […] Viability is determined by growth curves over time, by the percentage of motile cells or by the green appearance as indicative of photosynthetic activity. […]

[6] abbreviates: 0.5M trehalose in F/2, 20 weeks storage in water (no nutrients).
[7] abbreviates: 0.5M trehalose in F/2, 20 weeks storage, 0M control = 100%.
Where [8] appears, read: 0.5M trehalose in F/2, 20 weeks storage, final/initial density.

Each structure is given as a SMILES string.

On to `OC[C@H]1O[C@H](O[C@H]2O[C@H](CO)[C@@H](O)[C@H](O)[C@H]2O)[C@H](O)[C@@H](O)[C@@H]1O` [trehalose, α-D-glycosyl-α-D-glycosylpyranoside], for which the “Period for which cells remain viable” value in data set [1] is “at least 5 months”. Further, the “Final density after storage and 3 weeks rejuvenation” value in data set [2] (setting [6]) is 2.031 × 10^6 cells/ml; in data set [3] (setting [6]), 2.246 × 10^7 cells/ml; in data set [4] (setting [6]) it was 6.565 × 10^7 cells/ml. For the same compound, the “% Viability” value in data set [2] (setting [7]) was “(93%)”; in data set [3] (setting [7]), “(193%)”. For the same compound, the Growth in data set [2] (setting [8]) is given as 0.14; in data set [3] (setting [8]), 0.81; in data set [4] (setting [8]), 2.88. In data set [5] (after rehydration, light microscope), the “Cell appearance of preserved samples versus controls” value is listed as “No significant differences in cell appearance”. Also, in data set [5] (in 1M NaCl growth medium, compared with Sigma trehalose and other media), the “Cell viability after a week of drying and re-hydration” value was “best preserved”.

The record behind these values is patent US8735140B2, “Preservation and composition of bioprocess algae for production of lipids, seedstock, and feed” (Kuehnle AgroSystems, Inc., priority 2008, dated 2014).
